PubChem BioAssay (NCI)
Where “and” joins values, the source holds several entries; their conditions need not be identical. Equal entries are not always repeated.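 Five concentrations, 48 hours, 96-well plates. GI50 = concentration required for 50% inhibition of growth. TGI marks complete inhibition of growth.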

Experiments:
Assay in all cases: NCI tumour cell line growth inhibition, 48 h
DMS 273 small cell lung = tested on: DMS 273 small cell lung
DLD-1 colon = tested on: DLD-1 colon
M19-MEL melanoma = tested on: M19-MEL melanoma
LXFL 529 NSCLC = tested on: LXFL 529 NSCLC
RXF-631 renal = tested on: RXF-631 renal
KM20L2 colon = tested on: KM20L2 colon
SNB-78 CNS = tested on: SNB-78 CNS
XF 498 CNS = tested on: XF 498 CNS
MDA-N = tested on: MDA-N
P388/ADR leukemia = tested on: P388/ADR leukemia
P388 leukemia = tested on: P388 leukemia
SN12K1 renal = tested on: SN12K1 renal

Row | SMILES | TGI (DMS 273 small cell lung) | TGI (DLD-1 colon) | TGI (M19-MEL melanoma) | TGI (LXFL 529 NSCLC) [µM] | TGI (RXF-631 renal) [µM] | TGI (KM20L2 colon) | TGI (SNB-78 CNS) | TGI (XF 498 CNS) | TGI (MDA-N) [µM] | GI50 (DMS 273 small cell lung) [µM] | TGI (P388/ADR leukemia) [µM] | TGI (P388 leukemia) [µM] | GI50 (DLD-1 colon) [µM] | GI50 (SNB-78 CNS) [µM] | GI50 (XF 498 CNS) [µM] | GI50 (KM20L2 colon) [µM] | TGI (SN12K1 renal) [µM]
1 | COc1cc(C(C)c2cc3c(cc2OCCNC(=O)COc2cc4c(cc2C(C)c2cc(OC)c(OC)c(OC)c2)OCO4)OCO3)cc(OC)c1OC (configuration not stated) | > 100 µM | > 100 µM | > 100 µM | > 100 | > 100 | > 100 µM |  |  |  |  |  |  |  |  |  |  | 
2 | COc1ccc2c(c1)NC1(O)c3ccccc3C(=O)C21O (configuration not stated) | > 100 µM | > 100 µM | > 100 µM | > 100 | > 100 | > 100 µM | > 100 µM | > 100 µM |  |  |  |  |  |  |  |  | 
3 | N/N=C(\c1nc2ccc(Cl)cc2[nH]c1=O)C(O)c1ccc(Cl)c(Cl)c1 (configuration not stated) | > 100 µM | > 100 µM | > 100 µM | > 100 | > 100 | > 100 µM | > 100 µM | > 100 µM |  |  |  |  |  |  |  |  | 
4 | COc1cc(OC)c(OC)cc1/C=C/c1cnnc2ccccc12 |  |  |  |  |  |  |  |  | > 10 |  |  |  |  |  |  |  | 
5 | CCCN(CCC)C(=O)c1nc(N)nc(-c2ccc(OC)cc2)c1-c1ccc(OC)cc1 | > 100 µM | > 100 µM |  | > 100 | > 100 | > 100 µM | > 100 µM | > 100 µM |  |  |  |  |  |  |  |  | 
6 | CC(C)(C)N/N=C(\C(=O)Nc1nc(=S)[nH][nH]1)C1C(=O)Nc2ccccc2S1=O (configuration not stated) | > 100 µM | > 100 µM | > 100 µM | > 100 | > 100 | > 100 µM | > 100 µM | > 100 µM |  |  |  |  |  |  |  |  | 
7 | CCCCCCCC/C=C1\CCC(CN2CCOCC2)C1=O (configuration not stated) |  | 8.03 µM | 26.3 µM | 9.2 | 64.8 | 33 µM | 31.8 µM | 27.5 µM | 22.4 |  |  |  |  |  |  |  | 
8 | O=C(Nc1ccccc1-c1nn(CN2CCNCC2)c(=S)n(CN2CCNCC2)c1=O)C(F)(F)F | 35.3 µM | 33.3 µM | 32.1 µM |  | 46.8 |  | 62.4 µM |  |  |  |  |  |  |  |  |  | 
9 | COC(=O)C(=O)C(C(=O)C(=O)Nc1ccccc1OC)c1nc2ccc([N+](=O)[O-])cc2[nH]c1=O (configuration not stated) |  |  |  |  |  |  |  |  | > 100 |  |  |  |  |  |  |  | 
10 | Cc1nc(/C=C2\C(=O)C=Cc3ccccc32)c(O)o1 |  | > 100 µM | > 100 µM | > 100 |  | > 100 µM | > 100 µM |  |  |  |  |  |  |  |  |  | 
11 | Cc1[nH]c(N)nc(=S)c1CCC(=O)O |  |  |  |  |  |  |  |  | > 100 |  |  |  |  |  |  |  | 
12 | CC(=O)NC(CSC1=C2NC(=O)\C=C/C=C/C=C\C(C)C(O)CC(=O)/C(C)=C\CC(O)/C=C/C(C)C(O)C(C)C=C(C)C(=O)c3c(O)c(C)cc(c3C1=O)C2=O)C(=O)O (configuration not stated) |  |  |  |  |  |  |  |  | > 100 |  |  |  |  |  |  |  | 
13 | CC(=O)NNc1nc(C)c(C(=O)/C=C/c2ccc(Cl)cc2)s1 | > 100 µM | > 100 µM | > 100 µM |  |  | > 100 µM | > 100 µM |  |  |  |  |  |  |  |  |  | 
14 | COc1ccc2oc(-c3ccc(OC)c(OC)c3OC)cc(=O)c2c1 |  | > 100 µM | > 100 µM | > 100 |  | 63.1 µM |  | > 100 µM |  |  |  |  |  |  |  |  | 
15 | O=S(=O)(N=NC=C1c2ccccc2N(O)c2ccccc21)c1ccc(Cl)cc1 | > 100 µM | > 100 µM | > 100 µM | > 100 | > 100 | > 100 µM | > 100 µM |  |  |  |  |  |  |  |  |  | 
16 | COC1CCC(OC)C(C2(C3CC(OC)CCC3OC)OC(=O)c3ccccc32)C1 (configuration not stated) | > 100 µM | > 100 µM |  |  | > 100 | > 100 µM | > 100 µM | > 100 µM |  |  |  |  |  |  |  |  | 
17 | COC(=O)/C(C#N)=C(\N)C(Cl)(Cl)Cl | 12.4 µM | 3.52 µM | 6.35 µM | 9.73 | 6.02 | > 100 µM | 31.3 µM | 4.36 µM |  |  |  |  |  |  |  |  | 
18 | COC(=O)C1CC(OC(C)=O)C=C2C(=O)CCC21 (configuration not stated) | 43.8 µM | 40.7 µM | 59.9 µM | 39.3 | 86.8 | 70.1 µM | 72.8 µM |  |  |  |  |  |  |  |  |  | 
19 | CCOC(=O)C12C(C(=O)OC)=C(C)N(NC(=O)Nc3ccccc3)C1(N)N(NC(=O)Nc1ccccc1)C(C)=C2C(=O)OC (configuration not stated) | > 72.2 µM | > 100 µM | 33.2 µM | > 79.5 |  | 42.8 µM | > 100 µM | 59.1 µM |  |  |  |  |  |  |  |  | 
20 | CO[C@H]1C[C@](C)(O)Cc2cc3c(c(O)c21)C(=O)c1c(O)cc2c(c1C3=O)O[C@@H]1O[C@@]2(C)[C@H](O)[C@@H](N(C)C)[C@@H]1O | 2.79 µM and 3.32 µM | 4.08 µM and 22.3 µM | 2.56 µM and 9.81 µM | 7.33 | 2.71 | 5.01 µM and 17.2 µM | 9.66 µM and 21.8 µM | 2.51 µM and 0.689 µM | 10.6 | 0.188 | 16.1 | 3.3 | 1.67 | 5.05 | 1.15 | 1.74 | 2.15
21 | COc1cc(NS(C)(=O)=O)ccc1NCc1c2ccccc2nc2ccccc12 | > 100 µM | 85.4 µM |  | > 100 | 71.3 | > 100 µM |  | 65.9 µM |  |  |  |  |  |  |  |  | 
